Measured values taken from patent US5652222A, “Selective inhibition of leukemic cell proliferation by bcr-abl antisense oligonucleotides” (Temple University-of The Commonwealth System of Higher …, priority 1993, dated 1997).

Legend:
[1] = system: cells of CML patients in blast crisis, K-28 (b3a2) type junction; experiment: Colony formation of CML blast crisis patient cells expressing the b3a2 (K-28) junction; format: cell-based, human; conditions: antisense to L-6 junction on K-28 cells, compared with untreated cells
Text: To identify CML blast crisis patients carrying the second common type junction, in which bcr exon 3 is juxtaposed to c-abl exon 2, total RNA derived from cells of CML patients in blast crisis was reverse-transcribedwith synthetic primers. The 3' primer (SEQ ID NO:10) was complementary to 22 nucleotides of c-abl. exon 2. The 5' primer was the 22-mer GTCATCGTCCACTCAGCCACTG (SEQ ID NO:12) complementary to 22 nucleotides of bcr exon 3. The RNA was amplified by polymerase chain reaction according to Example 1. The amplification products were then hybridized with the synthetic 18-mer oligonucleotide GAAGGGCTTT TGAACTCT (SEQ ID NO:6), which is complementary to the b3a2 junction. After cloning of breakpoints in two patients, sequence analysis of several clones identified the b3a2 junction as precisely corresponding to the K-28 breakpoint shown in FIG. 3. (SEQ ID NO:4).
Utilizing the culture condition and oligomer treatment conditions of Example 1, cells were exposed to either no oligomer (FIG. 4A), the 18-nucleotide synthetic oligomer GAAGTGCTGT TGAACTCT (SEQ ID NO:5) partially complementary to the b3a2 junction, containing 9 nucleotides corresponding to bcr and 9 nucleotides corresponding to c-abl but with two mismatches (FIG. 4B); or the 18-nucleotide synthetic oligomer GAAGGGCTTT TGAACTCT (SEQ ID NO:6) completely complementary to the same bcr-abl junction (FIG. 4C).

[2] = system: normal hematopoietic progenitor cells (normal bone marrow MNC); experiment: CFU-GM colony formation of normal hematopoietic progenitor cells; format: cell-based, human; conditions: Table 3; 40 μg/ml at 0 h, 20 μg/ml 18 h later; 12 days; mean ± SD; control 263 ± 10
Text: (§1) Normal bone marrow mononuclear cells (MNC) were obtained by aspiration from consenting volunteers and enriched for hematopoietic progenitors as previously reported by numerous investigators (Zamecnick et al., Proc. Natl. Acad. Sci. U.S.A. 83, 4143-4147 (1986); Caracciolo et al., J. Clin. Invest. 85, 55-61 (1990)). In brief, marrow cells were subjected to Ficoll-Hypaque density gradient sedimentation and then depleted of adherent monocyte-macrophage and T-lymphocytes by adherence to plastic Petri dishes and rosetting with neuraminidase-treated sheep red blood cells, respectively. Philadelphia chromosome-positive blast cells were isolated by Ficoll-Hypaque density gradient sedimentation from a CML patient in blast crisis (L-6 type junction). […] The residual non-blast cells had the morphological appearance of small lymphocytes. 25,000 MNC and 25,000 CML blast cells were combined and incubated with bcr-abl breakpoint-Specific antisense oligomer (SEQ ID NO:3) (40 μg/ml at h 0; 20 μg/ml 18 hours later) or with a 4 nucleotide mismatch bcr-abl antisense oligomer (SEQ ID NO:2) (40 μg/ml at 0 h; 20 μg/ml 18 hours later) or left untreated. […] At the end of the incubation period colonies were counted. […]

[3] = system: β2-microglobulin transcript; experiment: β2-microglobulin transcript in residual colonies (RT-PCR control); format: cell-based, human; conditions: antisense-treated colonies
Experimental: To provide unambiguous evidence of the elimination of Philadelphia chromosome blast cells, residual cells from Example 3 were evaluated for the expression of bcr-abl transcripts, since the levels of this transcript should reflect the number of surviving leukemia cells. For this purpose, total RNA was isolated from a pool of colonies from Example 3, and the levels of bcr-abl transcripts were evaluated. Levels of β2 -microglobulin transcript were also determined as a control. The β2 -microglobulin gene is expressed independent of cell cycle.
Accordingly, bcr-abl and β2 -microglobulin transcripts were reverse-transcribed and amplified in the presence of specific primers and Taq polymerase as described by Rappollee, Science 241, 708-712 (1988). The amplification products were separated on a 2% agarose gel and transferred to a nitrocellulose filter, which was hybridized with a synthetic 40-nucleotide c-abl fragment and a 40-nucleotide β2 -microglobulin fragment and labeled with [γ-^32 P]-ATP and polynucleotide kinase. The c-abl probe recognizes the amplified 257-nucleotide sequence of FIG. 1, which contains the L-6 type bcr-abl junction. The β2 -microglobulin probe recognizes the 195-nucleotide sequence contained within 5' and 3' β2 -microglobulin primers (Id.; Suggs et al., Proc. Natl. Acad. Sci. U.S.A. 78, 6613 (1981)).

[4] = system: 1:1 mix of normal MNC and CML blast crisis cells; experiment: Morphology (Giemsa staining) of cells from residual colonies; format: cell-based, human
Text: as §1

BV173 cells = experiment: Survival of leukemic SCID mice; format: in vivo, SCID mice (human leukemic cells); conditions: treatment starting from days +7 or +21 (FIG. 12)
Text: To determine the lethal dose of BV173 cells in the SCID mice, we injected from 10^3 to 10^7 cells into the tail vein and monitored survival at various times postinjection. Mice injected with 10^7, 10^6, 10^5, or 10^4 BV173 cells died 8-10, 9-12, 13-15, or 14-22 weeks later, respectively, due to leukemia cell growth as confirmed on necroscopy. Spleen weight was about 40 times higher than that in noninjected SCID mice while liver and kidneys had numerous metastases and were enlarged 10-fold as compared to noninjected mice. Mice injected with 10^3 BV173 cells were still alive 35 weeks post implantation, and leukemia was never detected. From this study, 10^6 cells was taken as a lethal dose.
To determine whether synthetic phosphorothioate oligodeoxynucleotides targeted against the bcr-abl junction of […] cells would modify the disease process in SCID mice. SCID mice were injected with 10^6 BV173 cells. The mice then received 1 mg of sense (ATCAATAAGG AAGCCCTTCAGCG, SEQ ID NO:34) or antisense ([…] ATTGAT, SEQ ID NO:29) b2/a2 bcr-abl phosphorothioate oligodeoxynucleotides (pyrogen leven <1 Eu/mg; 0.2 ml in Iscove modified Dulbecco medium in 5-10 seconds) intravenously for each of 9 consecutive days, beginning either 7 or 21 days after introducing 10^6 BV173 cells. Control mice received the diluent (iscove's modified Dulbecco medium) only. These time points approximate distinct disease stages in humans.

Substance | inhibition of colony formation [1] | reduction of colony formation [1] | Colonies or Clusters, CFU-GM [2] | expression of β2-microglobulin [3] | morphology of cells isolated from residual colonies [4] | mortality / survival outcome (BV173 cells) | survival after i.v. injection of 10^6 BV173 cells (BV173 cells)
SEQ ID NO:3: synthetic 18-mer GAAGGGCTTC TTCCTTAT specific for the 18-nucleotide target sequence of the L-6 bcr-abl junction (antisense GAAGGGCTTCTTCCTTAT; chemistry not given here) | 2.5-5% | No significant reduction of colony formation | 253 ± 35 colonies or clusters | clearly detectable | largely consisted of differentiating elements | – | –
SEQ ID NO:34: phosphorothioate sense sequence ATCAATAAGGAAGCCCTTCAGCG (23-mer b2a2 sense) (sense ATCAATAAGGAAGCCCTTCAGCG; all phosphorothioate, sugars by position and methylation of C not given here) | – | – | – | – | – | died with diffuse leukemia | 10-13 weeks
